According to paper PMC6999911, “New 2-Ethylthio-4-methylaminoquinazoline derivatives inhibiting two subunits of cytochrome bc1 in Mycobacterium tuberculosis” (PLoS Pathogens, 2020):
≈ marks a conversion by molar mass, not a printed value. Like-named read-outs stand apart in the source and are kept apart here.

Legend:
[1] = test system: Corynebacterium glutamicum ATCC13032; assay: MIC, different organisms; type: cell-based
[2] = test system: Mycobacterium tuberculosis HN878; assay: MIC, different organisms; type: cell-based
M. tb H37Rv ΔcydAB [3] = type: cell-based; conditions: 8X MIC, 32X MIC, 7 days, d.l. = limit of detection
[4] = test system: Mycolicibacterium vaccae ATCC 15483; assay: MIC, different organisms; type: cell-based; conditions: ATCC15483
[5] = test system: Mycobacterium tuberculosis MDR 59744; assay: MIC, different organisms; type: cell-based
M. tb H37Rv [6] = type: cell-based; conditions: 11626252 8.4 μM (100x the MIC50)
Micrococcus luteus = assay: MIC, different organisms; type: cell-based
[7] = test system: Mycobacterium bovis BCG Pasteur; assay: microbe, parasite or virus in culture; type: cell-based; conditions: Mycobacterium tuberculosis variant bovis BCG
Enterococcus faecalis = assay: MIC, different organisms; type: cell-based
M. tb H37Rv ΔcydAB [8] = type: cell-based; conditions: ΔcydAB strain of M. tb H37Rv, even after CCCP
[9] = test system: Mycobacterium tuberculosis Erdman; assay: MIC, different organisms; type: cell-based
Escherichia coli PQ37 = assay: MIC, different organisms; type: cell-based
[10] = test system: non-replicating, streptomycin-starved strain 18b; assay: Activity against non-replicating strain 18b (model for latent TB); type: cell-based, Mycobacterium tuberculosis; conditions: streptomycin-starved 18b
[11] = test system: Mycobacterium smegmatis mc^2155; assay: MIC, different organisms; type: cell-based; conditions: Mycolicibacterium smegmatis
Candida albicans = assay: MIC, different organisms; type: cell-based
[12] = test system: Mycobacteroides abscessus subsp. abscessus 2005–0524; assay: MIC, different organisms; type: cell-based
[13] = test system: THP-1 macrophages infected with M.tb H37Rv; assay: Ex vivo drug susceptibility in infected THP-1 macrophages; type: cell-based; conditions: Mycobacterium tuberculosis; THP-1 macrophages infected with H37Rv, 48h
H37Rv = type: cell-based, Mycobacterium tuberculosis; conditions: 2.5X MIC, 24 h, compared to untreated controls
[14] = test system: Mycobacteroides abscessus subsp. massiliense 2005–0484; assay: MIC, different organisms; type: cell-based
[15] = test system: Mycobacterium marinum Strain M; assay: MIC, different organisms; type: cell-based
Listeria monocytogenes = assay: MIC, different organisms; type: cell-based
[16] = test system: Mycobacterium avium ATCC15769; assay: MIC, different organisms; type: cell-based
Salmonella typhimurium = assay: MIC, different organisms; type: cell-based; conditions: Salmonella enterica
[17] = test system: Mycobacteroides abscessus subsp. bolletii 1999–0888; assay: MIC, different organisms; type: cell-based
Staphylococcus aureus = assay: MIC, different organisms; type: cell-based
[18] = microsomes
in vitro = conditions: human, microsomes
Bacillus subtilis = assay: MIC, different organisms; type: cell-based
Pseudomonas putida = assay: MIC, different organisms; type: cell-based
M. tb H37Rv [19] = type: cell-based; conditions: 1X - 32X MIC, 7 days
[20] = test system: cydB and lipU in M. tb H37Rv; type: cell-based, Mycobacterium tuberculosis; conditions: M. tb H37Rv exposed to 11626252, 4 h
[21] = test system: Mycobacterium canettii STB-L; assay: MIC, different organisms; type: cell-based; conditions: Mycobacterium canetti
[22] = test system: Corynebacterium diphtheriae; assay: MIC, different organisms; type: cell-based
HepG2 cells = type: cell-based, Human; conditions: for Selective index TD50/MIC: HepG2 TD50 / H37Rv MIC; for HepG2 TD99: Toxic dose that inhibits 99% of cell growth, 3 days
Description: Human HepG2 cells (ATCC HB-8065, 4000 cells/well) were incubated for 3 days with two-fold serially diluted compounds at 37°C, under an atmosphere of 5% CO2. Cell viability was determined by the addition of resazurin (0.0025% w/v) for 5 h at 37°C and the fluorescence intensity measured as in REMA.

Pseudomonas aeruginosa = assay: MIC, different organisms; type: cell-based
M. tb H37Rv South Africa = assay: Acute model of murine TB; type: in vivo, Mycobacterium tuberculosis; conditions: Balb/c mice

SMILES	MIC [1] [µg/mL]	MIC [2] [µg/mL]	MIC [4] [µg/mL]	MIC (Micrococcus luteus) [µg/mL]	MIC [7] [µg/mL]	MIC (Enterococcus faecalis) [µg/mL]	MIC [9] [µg/mL]	MIC (Escherichia coli PQ37) [µg/mL]	MIC [11] [µg/mL]	MIC (Candida albicans) [µg/mL]	MIC [12] [µg/mL]	MIC [14] [µg/mL]	MIC [15] [µg/mL]	MIC (Listeria monocytogenes) [µg/mL]	MIC [16] [µg/mL]	MIC (Salmonella typhimurium) [µg/mL]	MIC [17] [µg/mL]	MIC (Staphylococcus aureus) [µg/mL]	Human microsome stability, clearance class [18]	microsomal CLint (in vitro) [µL/min/mg]	also measured
CCSc1nc(NC)c2cccc(F)c2n1 [Compound 11626252]	47.2 (≈ 199 µM)	0.03 (≈ 0.126 µM)	≥ 100	≥ 100	1.6 (≈ 6.74 µM)	≥ 100	0.02 (≈ 0.0843 µM)	≥ 100	32.3 (≈ 136 µM)	≥ 100	≥ 100	≥ 100	0.007 (≈ 0.0295 µM)	≥ 100	≥ 100	≥ 100	≥ 100	≥ 100	medium	18.1	log10 CFU/mL (M. tb H37Rv ΔcydAB [3]): < d.l.; MIC ([5]; MDR59744, read-out: MIC): 0.02 µg/mL (≈ 0.0843 µM); oxygen consumption rate (OCR) after exposure (M. tb H37Rv [6]): increased; oxygen consumption rate (OCR) after exposure (M. tb H37Rv ΔcydAB [8]): rapid and sustained decrease; Activity against non-replicating strain 18b [10]: no activity; IC50 [13]: 0.011 µg/mL (≈ 0.0464 µM); remaining relative ATP level (H37Rv): 19.81±8.125%; MIC (Bacillus subtilis): ≥ 100 µg/mL; MIC (Pseudomonas putida): ≥ 100 µg/mL; static or cidal activity by CFU enumeration (M. tb H37Rv [19]): bacteriostatic; expression of cydB and lipU (qRT-PCR) [20]: Overexpression; MIC ([21]; Mycobacterium canettii STB-L, read-out: MIC): 0.03 µg/mL (≈ 0.126 µM); MIC [22]: ≥ 100 µg/mL; Selective index TD50/MIC (HepG2 cells): 1950; HepG2 TD99 (HepG2 cells): > 100 µg/mL; MIC (Pseudomonas aeruginosa): ≥ 100 µg/mL
CCSc1nc(NC)c2ccc(F)c(F)c2n1 [Compound 11726148]																			medium	28.7	decrease of bacterial burden in the lungs (M. tb H37Rv South Africa; 150 mg/kg gavage daily for 10 days, vs untreated TPGS control, p-value 0.004): 0.51 log10 CFU/organ; melting point: 186 to 189 °C; Selective index TD50/MIC (HepG2 cells): 780; HepG2 TD99 (HepG2 cells): > 100 µg/mL
NNC(=O)c1ccncc1 [INH, isoniazid, reference compound]																					log10 CFU per lung (M. tb H37Rv South Africa; INH 25mg/kg gavage, 10 days, d.l. = limit of detection): < d.l.
CO[C@H]1/C=C/O[C@@]2(C)Oc3c(C)c(O)c4c(O)c(c(/C=N/N5CCN(C)CC5)c(O)c4c3C2=O)NC(=O)/C(C)=C\C=C\[C@H](C)[C@H](O)[C@@H](C)[C@@H](O)[C@@H](C)[C@H](OC(C)=O)[C@@H]1C [RIF, rifampicin, reference compound]	0.004 (≈ 0.00486 µM)	0.0006 (≈ 0.000729 µM)	6.6 (≈ 8.02 µM)	0.2 (≈ 0.243 µM)	0.0008 (≈ 0.000972 µM)	3.9 (≈ 4.74 µM)	0.001 (≈ 0.00122 µM)	6.5 (≈ 7.9 µM)	0.9 (≈ 1.09 µM)	2.2 (≈ 2.67 µM)	18.1 (≈ 22 µM)	9.5 (≈ 11.5 µM)	0.2 (≈ 0.243 µM)	0.6 (≈ 0.729 µM)	27.3 (≈ 33.2 µM)	0.8 (≈ 0.972 µM)	24.8 (≈ 30.1 µM)	1.4 (≈ 1.7 µM)			MIC ([5]; MDR59744): ≥ 10 µg/mL; MIC (Bacillus subtilis): 0.3 µg/mL (≈ 0.365 µM); MIC (Pseudomonas putida): 3 µg/mL (≈ 3.65 µM); MIC [21]: 0.001 µg/mL (≈ 0.00122 µM); MIC [22]: 0.5 µg/mL (≈ 0.608 µM); MIC (Pseudomonas aeruginosa): 0.2 µg/mL (≈ 0.243 µM)
